# From patent publication US6693208B2, “Compounds and compositions for delivering active agents” (Emisphere Technologies, Inc., priority 1999, dated 2004)
# Experiment: Heparin oral/intracolonic delivery in rats, heparin activity by APTT
# Format: in vivo, Sprague-Dawley rats
# Procedure: Oral gavage (PO) and/or intracolonic (IC) dosing solutions containing a delivery agent compound and heparin sodium USP in 25% aqueous propylene glycol were prepared. Either the sodium salt of the compound was used or the free acid was converted to the sodium salt with one equivalent of sodium hydroxide. Typically, delivery agent compound and heparin (about 166-182 IU/mg) were mixed by vortex as dry powders. This dry mixture was dissolved in 25% v/v aqueous propylene glycol, vortexed and placed in a sonicator (about 37° C.). The pH was adjusted to about 7 (6.5 to 8.5) with aqueous NaOH (2N). The dosing solution was sonicated to produce a clear solution. The final volume was adjusted to 3.0 mL. The final delivery agent compound dose, heparin dose and volume dose amounts are listed below in Table 2.
# The typical dosing and sampling protocols were as follows. Male Sprague-Dawley rats weighing between 275-350 g were fasted for 24 hours and were anesthetized with ketamine hydrochloride (88 mg/kg) intramuscularly immediately prior to dosing. A dosing group of five rats was administered one of the dosing solutions. For oral gavage (PO) dosing, an 11 cm Rusch 8 French catheter was adapted to a 1 mL syringe with a pipette tip. The syringe was filled with dosing solution by drawing the solution through the catheter, which was then wiped dry. The catheter was placed down the esophagus leaving 1 cm of tubing past the rat's incisors. Solution was administered by pressing the syringe plunger. For intracolonic (IC) dosing, a 7.5 cm 8 fr Rusch catheter was adapted to a 1 ml syringe with a pipette tip. The dosing catheter was inserted into the colon through the anus. until the tube was no longer visible. The dosing solution was expressed slowly into the colon.
# Citrated blood samples were collected by cardiac puncture following the administration of ketamine (88 mg/kg), typically at time—0.25, 0.5, 1.0 and 1.5 hours. Heparin activity was determined by utilizing the activated partial thromboplastin time (APTT) according to the method of Henry, J. B., Clinical Diagnosis and Management by Laboratory Methods, Philadelphia, Pa., W. B. Saunders (1979). Previous studied indicated baseline values of about 20 sec. Results from the five rats in each group were averaged for each time point. The maximum is reported below in Table 2.
# [1] = IC, 1 ml/kg, compound 50 mg/kg, heparin 25 mg/kg
# [2] = IC, 1 ml/kg, compound 50 mg/kg, heparin 100 mg/kg
# [3] = PO, 3 ml/kg, compound 200 mg/kg, heparin 100 mg/kg
SMILES,Mean Peak APTT (sec) ± SD) [1],Mean Peak APTT (sec) ± SD) [2],Mean Peak APTT (sec) ± SD) [3]
O=CNc1ccccc1C(=O)Nc1ccc(CCC(=O)O)cc1 [Compound 7],28.6 ± 6.1 s,–,–
COc1ccc(O)c(C(=O)Nc2ccc(CCCC(=O)O)cc2)c1 [Compound 9],–,192.8 ± 50.9 s,–
Cc1cc(F)cc(C(=O)Nc2ccc(CCC(=O)O)cc2)c1O [Compound 6],90.6 ± 50.9 s,–,33.8 ± 18.7 s
COc1ccccc1C(=O)NCCCCCCCCCCC(=O)O [Compound 3],44.2 ± 16.2 s,–,–
"O=C(O)CCCCCCCCCNC(=O)c1cc(Cl)cc(Cl)c1O [Compound 4, N-(3,5-dichlorosalicyloyl)-10-aminodecanoic acid]",94 ± 47.5 s,–,–
COc1ccc(O)c(C(=O)NCCCCCCCC(=O)O)c1 [Compound 1],102.3 ± 130.4 s,–,–
"O=C([O-])CCc1ccc(NC(=O)c2ccccc2O)c(F)c1.[Na+] [Compound 5, sodium 3-(4-salicyloylamino-3-fluorophenyl)propionate]",89.9 ± 68.6 s,–,32.6 ± 5 s
COc1ccc(O)c(C(=O)Nc2ccc(CCC(=O)O)cc2)c1 [Compound 8],–,266.4 ± 165.7 s,–
